Laboratory results as given in ChEMBL document CHEMBL1201862, “PubChem BioAssay data set” (2004).
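Where inhibition never reached the appropriate level, the endpoint shown equals the highest concentration tested. Otherwise, values were interpolated linearly from a five-concentration, 48-hour dose response in 96-well plates. GI50 is the concentration that inhibits growth by half.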 Active and inactive are the calls of the source. No stated cut-off is given here; in the data, active = GI50 up to about 1.1 µM and inactive = higher.

How the values were obtained:
Assay in all cases: NCI anticancer screen, dose series, 48 h
NCI/ADR-RES = system: NCI/ADR-RES
SW-620 = system: SW-620
TK-10 = system: TK-10
NCI-H460 = system: NCI-H460
SK-OV-3 = system: SK-OV-3
NCI-H226 = system: NCI-H226
OVCAR-3 = system: OVCAR-3
MDA-MB-435 = system: MDA-MB-435
MDA-N = system: MDA-N
LOX IMVI = system: LOX IMVI
Hs-578T = system: Hs-578T
COLO 205 = system: COLO 205
HOP-62 = system: HOP-62
UO-31 = system: UO-31
SK-MEL-2 = system: SK-MEL-2
SNB-19 = system: SNB-19
MDA-MB-231 = system: MDA-MB-231
T47D = system: T47D
786-0 = system: 786-0
SR = system: SR

Compound	GI50 (NCI/ADR-RES)	GI50 (SW-620)	GI50 (TK-10)	GI50 (NCI-H460)	GI50 (SK-OV-3)	GI50 (NCI-H226)	GI50 (OVCAR-3)	GI50 (MDA-MB-435)	GI50 (MDA-N)	GI50 (LOX IMVI)	GI50 (Hs-578T)	GI50 (COLO 205)	GI50 (HOP-62)	GI50 (UO-31)	GI50 (SK-MEL-2)	GI50 (SNB-19)	GI50 (MDA-MB-231)	GI50 (T47D)	GI50 (786-0)	GI50 (SR)
CC1=C2C(=O)NN=C2CCN1c1ccc(Br)cc1	> 100 µM (inactive)	> 100 µM (inactive)	> 100 µM (inactive)	> 100 µM (inactive)	> 100 µM (inactive)	> 100 µM (inactive)	> 100 µM (inactive)	> 100 µM (inactive)	> 100 µM (inactive)	62.8 µM (inactive)	> 100 µM (inactive)	> 100 µM (inactive)	> 100 µM (inactive)	54.3 µM (inactive)	> 100 µM (inactive)	> 100 µM (inactive)	> 100 µM (inactive)	70.3 µM (inactive)	> 100 µM (inactive)	
Cc1nn2c(C(=O)N/N=C/c3ccc([N+](=O)[O-])cc3)c(C)nc2s1	> 100 µM (inactive)	> 100 µM (inactive)	36.7 µM (inactive)	> 100 µM (inactive)	28.4 µM (inactive)	> 100 µM (inactive)	> 100 µM (inactive)	> 100 µM (inactive)	> 100 µM (inactive)	> 100 µM (inactive)	> 100 µM (inactive)	> 100 µM (inactive)	46.5 µM (inactive)	34.4 µM (inactive)		45.9 µM (inactive)	24.1 µM (inactive)	> 100 µM (inactive)	> 100 µM (inactive)	
O=C(O)c1ccccc1/C=C1\Cc2ccccc2C1=O	> 100 µM (inactive)	> 100 µM (inactive)	> 100 µM (inactive)	> 100 µM (inactive)		> 100 µM (inactive)	> 100 µM (inactive)	> 100 µM (inactive)	> 100 µM (inactive)	91 µM (inactive)	> 100 µM (inactive)	48.4 µM (inactive)	> 100 µM (inactive)	> 100 µM (inactive)	67.1 µM (inactive)	> 100 µM (inactive)		> 100 µM (inactive)	> 100 µM (inactive)	> 100 µM (inactive)
COc1cccc(C2c3cc4c(cc3OC(O)C2C)OCO4)c1OC (stereo not drawn)		3.64 µM (inactive)	7.4 µM (inactive)	3.71 µM (inactive)		2.51 µM (inactive)	2.79 µM (inactive)	5.97 µM (inactive)	8.67 µM (inactive)	4.05 µM (inactive)	4.46 µM (inactive)	6.11 µM (inactive)	17.4 µM (inactive)		5.2 µM (inactive)	11.2 µM (inactive)	14.2 µM (inactive)	3.36 µM (inactive)	3.29 µM (inactive)	2.48 µM (inactive)
Oc1cn(-c2ccc(Cl)cc2)nc1-c1n[nH]c(=S)n1-c1ccccc1	3.79 µM (inactive)	5.07 µM (inactive)	22 µM (inactive)	10.6 µM (inactive)	17.2 µM (inactive)	6.22 µM (inactive)	2.51 µM (inactive)	1.95 µM (inactive)			7.64 µM (inactive)	23 µM (inactive)	10 µM (inactive)	14.2 µM (inactive)	22.4 µM (inactive)	16.8 µM (inactive)	57.5 µM (inactive)	19.5 µM (inactive)	11.6 µM (inactive)	2.97 µM (inactive)
C/C(=N\Nc1nc2ccccc2[nH]1)c1cnccn1	0.64 µM (active)	0.4 µM (active)	4.09 µM (inactive)	0.394 µM (active)	0.607 µM (active)	0.441 µM (active)	0.296 µM (active)	0.822 µM (active)	1.9 µM (inactive)	0.361 µM (active)	19.8 µM (inactive)	0.415 µM (active)	0.619 µM (active)	0.548 µM (active)	1.45 µM (inactive)	2.72 µM (inactive)	2.88 µM (inactive)	0.437 µM (active)	0.263 µM (active)	
CN1C/C(=C\c2cccs2)C(O)/C(=C/c2cccs2)C1 (stereo not drawn)	> 100 µM (inactive)	> 100 µM (inactive)	> 100 µM (inactive)	> 100 µM (inactive)	> 100 µM (inactive)	> 100 µM (inactive)	> 100 µM (inactive)	> 100 µM (inactive)	> 100 µM (inactive)	> 100 µM (inactive)	> 100 µM (inactive)	87.1 µM (inactive)	> 100 µM (inactive)	97.3 µM (inactive)	> 100 µM (inactive)	> 100 µM (inactive)	> 100 µM (inactive)	25.8 µM (inactive)	> 100 µM (inactive)	
